The target in assay [1] is T1, G12V-mutant human KRAS (amino acid residues 1-188) (Homo sapiens, UniProt P01116, G12V).
T1 construct: G12V-mutant human KRAS (amino acid residues 1-188) with FLAG tag was purified from E. coli; made in house; host or cells: E. coli
Put plainly: KRAS Binding Competition Assay (AlphaScreen; biotinylated KRpep-2d analogue), G12V. To be noted: geometric mean, read-out: KRAS GMean IC50 (uM) MUTATION: G12V. For orientation: Alpha assays give light when donor and acceptor beads are brought close together.

Assay [2] deals with T2, G12D-mutant human KRAS (amino acid residues 1-188) (Homo sapiens, UniProt P01116, G12D).
T2 construct: G12D or G12C-mutant human KRAS (amino acid residues 1-188) with FLAG tag; made in house; host or cells: E. coli
Briefly: KRAS Binding Disruption Assay (AlphaScreen; biotinylated KRpep-2d analogue or RAF1-RBD), G12D. To be noted: KRAS G12D; geometric mean; read-out: KRAS GMean IC50 (uM) MUTATION: G12D. An outline of the steps:
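Compounds are titrated against 5-20 nM mutant KRAS and 5-20 nM of either a biotinylated KRpep-2d analogue or RAF1-RBD, incubated 1 h at 25° C. Disruption is detected as reduced Alpha signal after 1 h with donor and acceptor beads at 10 μg/mL.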

The IC50 is the concentration that inhibits the measured activity by half. Consider `CN1CCc2cccc(Oc3nc(N4C[C@H]5CC[C@@H](C4)N5)c4cc(Cl)c(-c5c(O)cccc5F)c(F)c4n3)c2C1` [P-0331, 2-(4-((1R,5S)-3,8-diazabicyclo[3.2.1]octan-3-yl)-6-chloro-8-fluoro-2-((2-methyl-1,2,3,4-tetrahydroisoquinolin-8-yl)oxy)quinazolin-7-yl)-3-fluorophenol], for which the IC50 lay within 10 to 100 µM in assay [1] and 0.0001 to 10 µM in assay [2].

`CN1CCc2cccc(Oc3nc(N4C[C@H]5CC[C@@H](C4)N5)c4ccc(-c5c(O)cccc5F)c(F)c4n3)c2C1` [P-0332, 2-(4-((1R,5S)-3,8-diazabicyclo[3.2.1]octan-3-yl)-8-fluoro-2-((2-methyl-1,2,3,4-tetrahydroisoquinolin-8-yl)oxy)quinazolin-7-yl)-3-fluorophenol]: the IC50 in assay [1] and in assay [2] was 10 to 100 µM each time.

Turning to `CN1CCc2c(cccc2Oc2nc(N3C[C@H]4CC[C@@H](C3)N4)c3cc(Cl)c(-c4c(O)cccc4F)c(F)c3n2)C1` [P-0333, 2-(4-((1R,5S)-3,8-diazabicyclo[3.2.1]octan-3-yl)-6-chloro-8-fluoro-2-((2-methyl-1,2,3,4-tetrahydroisoquinolin-5-yl)oxy)quinazolin-7-yl)-3-fluorophenol], the IC50 in assay [1] was in the range of 10 to 100 µM; in assay [2], 0.0001 to 10 µM.

For the compound `CN1CCc2c(cccc2Oc2nc(N3C[C@H]4CC[C@@H](C3)N4)c3ccc(-c4c(O)cccc4F)c(F)c3n2)C1` [P-0334, 2-(4-((1R,5S)-3,8-diazabicyclo[3.2.1]octan-3-yl)-8-fluoro-2-((2-methyl-1,2,3,4-tetrahydroisoquinolin-5-yl)oxy)quinazolin-7-yl)-3-fluorophenol], the IC50 in assay [1] and in assay [2] was 10 to 100 µM in each case.

For the compound `COc1cccc(F)c1-c1c(Cl)cc2c(N3C[C@H]4CC[C@@H](C3)N4)nc(Oc3cccc4c3CN(C)CC4)nc2c1F` [P-0335, 4-((1R,5S)-3,8-diazabicyclo[3.2.1]octan-3-yl)-6-chloro-8-fluoro-7-(2-fluoro-6-methoxyphenyl)-2-((2-methyl-1,2,3,4-tetrahydroisoquinolin-8-yl)oxy)quinazoline], the IC50 in assay [1] and in assay [2] was 10 to 100 µM throughout.

As for `CN1CCC[C@H]1COc1nc(N2[C@@H]3CC[C@H]2CNC3)c2ccc(-c3cc(O)cc4ccccc34)cc2n1` [P-0336, 4-(4-((1R,5S)-3,8-diazabicyclo[3.2.1]octan-8-yl)-2-(((S)-1-methylpyrrolidin-2-yl)methoxy)quinazolin-7-yl)naphthalen-2-ol], the values for the IC50 in assay [1] and in assay [2] were 10 to 100 µM and 0.0001 to 10 µM, respectively.

With `CN1CCC[C@H]1COc1nc(N2C[C@H]3CC[C@@H](C2)N3)c2ccc(-c3cccc4ccccc34)cc2n1` [P-0337, 4-((1R,5S)-3,8-diazabicyclo[3.2.1]octan-3-yl)-2-(((S)-1-methylpyrrolidin-2-yl)methoxy)-7-(naphthalen-1-yl)quinazoline], the IC50 in assay [1] is 100 to 1000 µM; in assay [2], 0.0001 to 10 µM.

Regarding `CN1CCC[C@H]1COc1nc(N2C[C@H]3CC[C@@H](C2)N3)c2ccc(-c3c(O)ccc4ccccc34)cc2n1` [P-0338, 1-(4-((1R,5S)-3,8-diazabicyclo[3.2.1]octan-3-yl)-2-(((S)-1-methylpyrrolidin-2-yl)methoxy)quinazolin-7-yl)naphthalen-2-ol], the IC50 in assay [1] fell in the range of 10 to 100 µM; in assay [2], 0.0001 to 10 µM.

Regarding `CN1CCC[C@H]1COc1nc(N2C[C@H]3CC[C@@H](C2)N3)c2ccc(-c3cc([N+](=O)[O-])cc4ccccc34)cc2n1` [P-0339, 4-((1R,5S)-3,8-diazabicyclo[3.2.1]octan-3-yl)-2-(((S)-1-methylpyrrolidin-2-yl)methoxy)-7-(3-nitronaphthalen-1-yl)quinazoline], the IC50 in assay [1] and in assay [2] was 10 to 100 µM in each case.

Regarding `CN1CCC[C@H]1COc1nc(N2C[C@H]3CC[C@@H](C2)N3)c2ccc(-c3cc(N)cc4ccccc34)cc2n1` [P-0340, 4-(4-((1R,5S)-3,8-diazabicyclo[3.2.1]octan-3-yl)-2-(((S)-1-methylpyrrolidin-2-yl)methoxy)quinazolin-7-yl)naphthalen-2-amine], the IC50 in assay [1] lay within 10 to 100 µM; in assay [2], 0.0001 to 10 µM.

On to `Cc1c(N)cccc1-c1ccc2c(N3C[C@H]4CC[C@@H](C3)N4)nc(OC[C@@H]3CCCN3C)nc2c1` [P-0341, 3-(4-((1R,5S)-3,8-diazabicyclo[3.2.1]octan-3-yl)-2-(((S)-1-methylpyrrolidin-2-yl)methoxy)quinazolin-7-yl)-2-methylaniline], for which the IC50 in assay [1] fell in the range of 10 to 100 µM; in assay [2], 100 to 1000 µM.

Regarding `CN1CCC[C@H]1COc1nc(N2C[C@H]3CC[C@@H](C2)N3)c2ccc(-c3c(O)cccc3Cl)cc2n1` [P-0342, 2-(4-((1R,5S)-3,8-diazabicyclo[3.2.1]octan-3-yl)-2-(((S)-1-methylpyrrolidin-2-yl)methoxy)quinazolin-7-yl)-3-chlorophenol], the results for the IC50 in assay [1] and in assay [2] were 10 to 100 µM and 0.0001 to 10 µM, respectively.

Regarding `Cc1cccc(N)c1-c1ccc2c(N3C[C@H]4CC[C@@H](C3)N4)nc(OC[C@@H]3CCCN3C)nc2c1` [P-0343, 2-(4-((1R,5S)-3,8-diazabicyclo[3.2.1]octan-3-yl)-2-(((S)-1-methylpyrrolidin-2-yl)methoxy)quinazolin-7-yl)-3-methylaniline], the IC50 in assay [1] and in assay [2] was 10 to 100 µM throughout.

On to `CN1CCC[C@H]1COc1nc(N2C[C@H]3CC[C@@H](C2)N3)c2cc(F)c(N3CC(O)Cc4ccccc43)c(F)c2n1` (stereo partly drawn) [P-0344, 1-(4-((1R,5S)-3,8-diazabicyclo[3.2.1]octan-3-yl)-6,8-difluoro-2-(((S)-1-methylpyrrolidin-2-yl)methoxy)quinazolin-7-yl)-1,2,3,4-tetrahydroquinolin-3-ol], for which the values for the IC50 in assay [1] and in assay [2] were 100 to 1000 µM and 0.0001 to 10 µM, respectively.

Consider `CN1CCC[C@H]1COc1nc(N2[C@@H]3CC[C@H]2CN(CC(=O)C2CCNCC2)C3)c2ccc(-c3cc(O)cc4ccccc34)cc2n1` [P-0345, 2-((1R,5S)-8-(7-(3-hydroxynaphthalen-1-yl)-2-(((S)-1-methylpyrrolidin-2-yl)methoxy)quinazolin-4-yl)-3,8-diazabicyclo[3.2.1]octan-3-yl)-1-(piperidin-4-yl)ethan-1-one], for which the IC50 in assay [1] is 10 to 100 µM; in assay [2], 0.0001 to 10 µM.

As for `CN1CCC[C@H]1COc1nc(N2[C@@H]3CC[C@H]2CN(CC(O)CN2CCOCC2)C3)c2ccc(-c3cc(O)cc4ccccc34)cc2n1` (stereo partly drawn) [P-0346, 4-(4-((1R,5S)-3-(2-hydroxy-3-morpholinopropyl)-3,8-diazabicyclo[3.2.1]octan-8-yl)-2-(((S)-1-methylpyrrolidin-2-yl)methoxy)quinazolin-7-yl)naphthalen-2-ol], the IC50 in assay [1] was in the range of 10 to 100 µM; in assay [2] it was 0.0001 to 10 µM.

Regarding `CN1CCC[C@H]1COc1nc(N2[C@@H]3CC[C@H]2CN(C(=O)Nc2cnc[nH]2)C3)c2ccc(-c3cc(O)cc4ccccc34)cc2n1` [P-0347, (1R,5S)-8-(7-(3-hydroxynaphthalen-1-yl)-2-(((S)-1-methylpyrrolidin-2-yl)methoxy)quinazolin-4-yl)-N-(1H-imidazol-5-yl)-3,8-diazabicyclo[3.2.1]octane-3-carboxamide], the IC50 in assay [1] and in assay [2] was 0.0001 to 10 µM throughout.

Regarding `CN1CCC[C@H]1COc1nc(N2[C@@H]3CC[C@H]2CN(CC2(O)CCNCC2)C3)c2ccc(-c3cc(O)cc4ccccc34)cc2n1` [P-0348, 4-(((1R,5S)-8-(7-(3-hydroxynaphthalen-1-yl)-2-(((S)-1-methylpyrrolidin-2-yl)methoxy)quinazolin-4-yl)-3,8-diazabicyclo[3.2.1]octan-3-yl)methyl)piperidin-4-ol], the IC50 in assay [1] and in assay [2] was 10 to 100 µM in each case.

Consider `CN1CCC[C@H]1COc1nc(N2[C@@H]3CC[C@H]2CN(C(=N)NC#N)C3)c2ccc(-c3cc(O)cc4ccccc34)cc2n1` [P-0349, (1R,5S)-N-cyano-8-(7-(3-hydroxynaphthalen-1-yl)-2-(((S)-1-methylpyrrolidin-2-yl)methoxy)quinazolin-4-yl)-3,8-diazabicyclo[3.2.1]octane-3-carboximidamide], for which the IC50 in assay [1] lay within 0.0001 to 10 µM; in assay [2] it was 10 to 100 µM.

Regarding `CN1CCC[C@H]1COc1nc(N2[C@@H]3CC[C@H]2CN(C(=O)c2c[nH]cn2)C3)c2ccc(-c3cc(O)cc4ccccc34)cc2n1` [P-0350, ((1R,5S)-8-(7-(3-hydroxynaphthalen-1-yl)-2-(((S)-1-methylpyrrolidin-2-yl)methoxy)quinazolin-4-yl)-3,8-diazabicyclo[3.2.1]octan-3-yl)(1H-imidazol-4-yl)methanone], the half-maximal inhibitory concentration (IC50) in assay [1] is 0.0001 to 10 µM; in assay [2], 10 to 100 µM.

Take `O=C(O)CC(=O)N1[C@@H]2CC[C@H]1CN(c1nc(OCC34CCCN3CCC4)nc3c(F)c(-c4cc(O)cc5ccccc45)ccc13)C2` [P-0353, 3-((1R,5S)-3-(8-fluoro-7-(3-hydroxynaphthalen-1-yl)-2-((tetrahydro-1H-pyrrolizin-7a(5H)-yl)methoxy)quinazolin-4-yl)-3,8-diazabicyclo[3.2.1]octan-8-yl)-3-oxopropanoic acid]: the IC50 in assay [1] and in assay [2] was 0.0001 to 10 µM in each case.

As for `CN(C)c1ccc(/C=C/c2nc(N3C[C@H]4CC[C@@H](C3)N4)c3cc(Cl)c(-c4c(O)cccc4F)c(F)c3n2)cc1` [P-0355, 2-(4-((1R,5S)-3,8-diazabicyclo[3.2.1]octan-3-yl)-6-chloro-2-((E)-4-(dimethylamino)styryl)-8-fluoroquinazolin-7-yl)-3-fluorophenol], the IC50 in assay [1] and in assay [2] was 0.0001 to 10 µM in each case.
